The text below walks through data of patent US20030224978A1, “Compounds and methods for modulating apoptosis” (McGill University, priority 1996, published 2003).

In data set [1] the test system is bovine pulmonary artery endothelial cells. The data set can be described thus: Disruption of bovine endothelial cell adhesion. In kind it is cell-based. The following applies: 500 μg/ml, 30 minutes. How it is done:
For use within one such assay, bovine pulmonary artery endothelial cells may be harvested by sterile ablation and digestion in 0.1% collagenase (type II; Worthington Enzymes, Freehold, N.J.). Cells may be maintained in Dulbecco's minimum essential medium supplemented with 10% fetal calf serum and 1% antibiotic-antimycotic at 37° C. in 7% CO2 in air. Cultures may be passaged weekly in trypsin-EDTA and seeded onto tissue culture plastic at 20,000 cells/cm^2. Endothelial cultures may be used at 1 week in culture, which is approximately 3 days after culture confluency is established. The cells may be seeded onto coverslips and treated (e.g., for 30 minutes) with modulating agent or a control compound at, for example, 500 μg/ml and then fixed with 1% paraformaldehyde. As noted above, disruption of cell adhesion may be determined visually within 24 hours, by observing retraction of the cells from one another. This assay evaluates the effect of a modulating agent on N-cadherin mediated cell adhesion.
Bovine pulmonary artery endothelial cells were harvested by sterile ablation and digestion in 0.1% collagenase (type II; Worthington Enzymes, Freehold, N.J.). Cells were maintained in Dulbecco's […] essential medium (Clonetics, San Diego, Calif.) supplemented with 10% fetal calf serum (Atlantic Biologicals, Nor cross, Ga.) and 1% antibiotic-antimycotic at 37° C. in 7% CO2 in air. Cultures were passaged weekly in trypsin-EDTA (Gibco, Grand Island, N.Y.) and seeded onto tissue culture plastic at 20,000 cells/cm^2 for all experiments. Endothelial cultures were used at 1 week in culture, which is approximately 3 days after culture confluency was established. The cells used in all protocols were between 4th passage and 10th passage. The cells were seeded onto coverslips and treated 30 minutes with N-Ac-CHAVC-NH2 (SEQ ID NO:10) or N-Ac-CHGVC-NH2 (SEQ ID NO:20) at 500 μg/ml and then fixed with 1% paraformaldehyde.

Data set [2] can be described thus: in vitro. In kind it is cell-based. The following applies: human. How it is done: (§1) N-Ac-CHAVC-NH2 (SEQ ID NO:10) and the control peptide N-Ac-CHGVC-NH2 (SEQ ID NO:20) were evaluated for possible cytotoxic effects on human microvascular endothelial (HMVEC; Clonetics), human umbilical vein endothelial (HUVEC; ATCC #CRL-1730), IAFp2 (human fibroblast cell line; Institute Armand-Frapier, Montreal, Quebec), WI-38 (human fibroblast cell line; ATCC #CCL-75), MDA-MB231 (human breast cancer cell line; ATCC #HTB-26), and PC-3 (human prostate cancer cell line; ATCC #CRL-1435) cells utilizing the MTT assay (Plumb et al., Cancer Res. 49:4435-4440, 1989). Neither of the peptides was cytotoxic at concentrations up to and including 100 μM. Similarly, neither of the peptides was capable of inhibiting the proliferation of the above cell lines at concentrations up to 100 μM, as judged by ^3H-thymidine incorporation assays.

The nature of data set [3]: in vitro. The following applies: human. In kind it is cell-based. How it is done: as §1
This is another data set of the same source.

Data set [4] in a line: in vitro. In kind it is cell-based. The following applies: human. How it is done: as §1
The source holds these as a separate data set.

Data set [5] is described as follows: in vitro. In kind it is cell-based. The following applies: human. How it is done:
as §1
This is another data set of the same source.

The next data set has as its target T1, chick N-cadherin (Gallus gallus, UniProt P10288).
T1 construct: expressed in transfected cells; host or cells: 3T3 fibroblasts
T1 sequence (P10288 165-912): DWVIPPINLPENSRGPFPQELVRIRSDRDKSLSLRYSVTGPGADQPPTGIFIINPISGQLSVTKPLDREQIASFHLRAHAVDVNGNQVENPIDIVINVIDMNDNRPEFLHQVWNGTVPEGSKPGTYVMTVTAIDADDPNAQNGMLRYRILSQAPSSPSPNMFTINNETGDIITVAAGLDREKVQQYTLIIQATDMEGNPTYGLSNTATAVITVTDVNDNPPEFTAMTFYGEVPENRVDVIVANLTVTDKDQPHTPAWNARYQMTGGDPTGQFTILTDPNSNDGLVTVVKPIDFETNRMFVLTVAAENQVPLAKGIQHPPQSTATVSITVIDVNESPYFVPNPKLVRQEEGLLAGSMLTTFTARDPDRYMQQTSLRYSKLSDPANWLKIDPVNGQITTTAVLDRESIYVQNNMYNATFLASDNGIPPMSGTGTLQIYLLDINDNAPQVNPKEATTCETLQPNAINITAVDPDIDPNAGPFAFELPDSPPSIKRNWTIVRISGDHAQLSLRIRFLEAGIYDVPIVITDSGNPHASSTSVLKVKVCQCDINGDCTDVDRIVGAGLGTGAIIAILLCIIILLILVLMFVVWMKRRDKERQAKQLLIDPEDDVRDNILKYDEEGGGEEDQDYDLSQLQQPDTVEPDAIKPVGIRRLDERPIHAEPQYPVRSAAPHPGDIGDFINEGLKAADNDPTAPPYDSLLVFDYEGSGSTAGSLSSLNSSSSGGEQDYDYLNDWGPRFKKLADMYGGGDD
Description: N-cadherin dependent neurite outgrowth of rat cerebellar neurons on N-cadherin expressing 3T3 cells (Example 14). The following applies: for inhibition at 250 µg/mL: NIH3T3, 250 μg/mL, 16-18 hours. In kind it is cell-based. How it is done:
Cell culture and neurite outgrowth assays. Co-cultures of cerebellar neurons on monolayers of control 3T3 cells and monolayers of transfected 3T3 cells that express physiological levels of chick N-cadherin or human L1 were established as previously described (Williams et al., Neuron 13:583-594, 1994). In brief, 80,000 3T3 cells (control and transfected) were plated into individual chambers of an eight-chamber tissue culture slide coated with polylysine and fibronectin and cultured in DMEM/10% FCS. After 24 hours, when confluent monolayers had formed, the medium was removed and 3000 cerebellar neurons isolated from post-natal day 2-3 rats were plated into each well in SATO media (Doherty et al., Nature 343:464-466, 1990) supplemented with 2% FCS. All of the test peptides were added immediately before the neurons as a 2×stock prepared in SATO/2% FCS. The co-cultures were maintained for 16-18 hours, at which time they were fixed and immunostained for GAP-43 which is present only in the neurons and delineates the neuritic processes. The mean length of the longest neurite per cell was measured for 150-200 neurons sampled in replicate cultures as previously described (Williams et al., Neuron 13:583-594, 1994). […] Dose-response curves were evaluated and the EC50 values determined.
Effects of cyclic HAV peptides on N-cadherin function. The ability of N-Ac-CHAVC-NH2 (SEQ ID NO:10; compound 1) to inhibit neurite outgrowth was initially tested. This cyclic peptide has the cadherin CAR sequence (HAV) and no flanking amino acid residues. Neurons were cultured on confluent monolayers of control (untransfected) and N-cadherin expressing 3T3 cells for 16-18 hours. The cells were then fixed and the length of the longest neurite on 150-200 neurons was determined by standard assay, as described above. FIG. 24 gives the mean neurite length in a representative experiment where cerebellar neurons have been cultured over control and N-cadherin expressing cells. In the absence of peptide, the mean length of the longest neurite per cell was approximately double on the N-cadherin expressing cells, as compared to 3T3 cells. This response requires N-cadherin function in both the neuron and transfected fibroblast.

Data set [6] deals with angiogenesis in chick embryonic chorioallantoic membranes. The data set can be described thus: Chick chorioallantoic membrane angiogenesis assay. The following applies: 3, 17, and 33 μg/mesh. In kind it is in vivo. How it is done: The chick chorioallantoic membrane assay was used to assess the effects of cyclic peptides on angiogenesis (Iruela-Arispe et al., Molecular Biology of the Cell 6:327-343, 1995). Cyclic peptides were embedded in a mesh composed of vitrogen at concentrations of 3, 17, and 33 μg/mesh. The meshes were then applied to 12-day-old chick embryonic chorioallantoic membranes. After 24 hours, the effects of the peptides on angiogenesis were assessed by computer assisted morphometric analysis.
For each concentration of cyclic peptide, the percent inhibition of angiogenesis (relative to the level of angiogenesis in the absence of cyclic peptide) is provided. Assays were performed in the presence (+) or absence (−) of […] VEGF. For example, the cyclic peptide N-Ac-CHAVC-NH2 (SEQ ID NO:10) inhibited angiogenesis by 46%, 51%, and 51% at concentrations of 3, 17, and 33 μg/mesh, respectively.

SMILES strings stand for the structures. Positions of bridges follow the written chain, without caps; N, C: chain ends. Residues, ends and D or L forms follow the SMILES beside them. Some results are limits rather than exact numbers.

As to `CC(=O)N[C@H]1CSSC[C@@H](C(N)=O)NC(=O)[C@H](CC(=O)O)NC(=O)[C@H](C(C)C)NC(=O)CNC(=O)[C@H](Cc2c[nH]cn2)NC(=O)[C@H](C)NC1=O` [N-Ac-CAHGVDC-NH2, reference compound] (Ac-CAHGVDC-NH2; disulfide 1-7), the “effect on endothelial cell monolayer / morphology” value in data set [1] is “inactive”. Besides, the IC50 in “in vitro [2]”, in “in vitro [3]”, in the data set “in vitro [4]” and in “in vitro [5]” was greater than 100 µM in each case. Further, the inhibition (in general, the change of the read-out against control, counted positive when it falls) at 250 µg/mL at chick N-cadherin was 4 ± 6.9%.
For `CC(=O)N[C@H]1CSSC[C@@H](C(N)=O)NC(=O)[C@H](C(C)C)NC(=O)[C@H](C)NC(=O)[C@H](Cc2c[nH]cn2)NC(=O)[C@H](CO)NC1=O` [N-Ac-CSHAVC-NH2, N-Ac-Cys-Ser-His-Ala-Val-Cys-NH2] (Ac-CSHAVC-NH2; disulfide 1-6), the IC50 in “in vitro [2]”, in “in vitro [3]”, in the data set “in vitro [4]” and in “in vitro [5]” was greater than 100 µM each time. Further, the inhibition at 250 µg/mL on chick N-cadherin was 11 ± 8.6%. Also, the “reduction in inhibitory activity on flanking HAV with E-cadherin amino acids” value at chick N-cadherin (Table 8, 250 μg/mL) is reported as “complete”.
`CC(=O)N[C@H]1CSSC[C@@H](C(N)=O)NC(=O)[C@H](C(C)C)NC(=O)CNC(=O)[C@H](Cc2c[nH]cn2)NC(=O)[C@H](CO)NC1=O` [N-Ac-CSHGVC-NH2, reference compound] (Ac-CSHGVC-NH2; disulfide 1-6): the IC50 in “in vitro [2]”, in the data set “in vitro [3]”, in “in vitro [4]” and in “in vitro [5]” was greater than 100 µM each time. Moreover, the inhibition at 250 µg/mL on chick N-cadherin was 12.5 ± 7.5%.
Take `CC(=O)N[C@H]1CSSC[C@@H](C(N)=O)NC(=O)[C@H](Cc2c[nH]cn2)NC(=O)[C@H](C)NC(=O)[C@H](C(C)C)NC1=O` [N-Ac-CVAHC-NH2] (Ac-CVAHC-NH2; disulfide 1-5 (inferred)): the “inhibition of angiogenesis, in words” value in data set [6] is “relatively inactive”. Moreover, the IC50 in the data set “in vitro [2]”, in “in vitro [3]”, in “in vitro [4]” and in the data set “in vitro [5]” was greater than 100 µM throughout.
With `CC[C@H](C)[C@@H]1NC(=O)[C@H](CC(=O)O)NC(=O)[C@H](C(C)C)NC(=O)CNC(=O)[C@H](Cc2c[nH]cn2)NC(=O)[C@H](C)NC(=O)[C@@H](NC(C)=O)CSSC[C@@H](C(N)=O)NC1=O` [reference compound] (Ac-CAHGVDIC-NH2; disulfide 1-8), the 50% inhibitory concentration (IC50) in “in vitro [2]”, in “in vitro [3]”, in the data set “in vitro [4]” and in the data set “in vitro [5]” was greater than 100 µM in each case. In addition, the inhibition at 250 µg/mL on chick N-cadherin was found to be 4.8 ± 6.5%.
Regarding `CC(=O)N[C@H]1CSSC[C@@H](C(N)=O)NC(=O)[C@H](CO)NC(=O)[C@H](CO)NC(=O)[C@H](C(C)C)NC(=O)CNC(=O)[C@H](Cc2c[nH]cn2)NC(=O)[C@H](CO)NC1=O` [reference compound] (Ac-CSHGVSSC-NH2; disulfide 1-8), in data set [1], the “effect on endothelial cell monolayer / morphology” value was “inactive”. Moreover, the IC50 in “in vitro [2]”, in “in vitro [3]”, in the data set “in vitro [4]” and in “in vitro [5]” was greater than 100 µM in each case. The inhibition at 250 µg/mL at chick N-cadherin was -5.6 ± 5.9%.
Consider `CC[C@H](C)[C@@H]1NC(=O)[C@H](CC(=O)O)NC(=O)[C@H](C(C)C)NC(=O)CNC(=O)[C@H](Cc2c[nH]cn2)NC(=O)[C@H](C)NC(=O)[C@@H](N)CSSC[C@@H](C(N)=O)NC1=O` [reference compound] (H-CAHGVDIC-NH2; disulfide 1-8), for which the IC50 in the data set “in vitro [2]”, in “in vitro [3]”, in the data set “in vitro [4]” and in “in vitro [5]” was greater than 100 µM throughout. At chick N-cadherin, the inhibition at 250 µg/mL was found to be 7.2 ± 8.1%.
